Laboratory results reported in patent publication US20060069132A1, “Azolecarboxamide herbicides” (priority 2004, published 2006).

What was measured:
[1] = system: ducksalad; assay: Test C flooded paddy test; format: in vivo, Heteranthera limosa; settings: for Plant response rating, Ducksalad: 500 g ai/ha, visual rating after 12 to 14 days
[2] = system: yellow nutsedge; assay: Test C pre-/postemergence herbicide test; format: in vivo, Cyperus esculentus; settings: for Plant response rating, Nutsedge, Yellow: preemergence
How it was run: (§1)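 Visual injury scores run from 0 (no effect) to 100 (complete control), assessed relative to untreated controls 12 to 14 days after treatment in the greenhouse. Chemicals were formulated in a non-phytotoxic solvent mixture with surfactant and applied to soil after planting or to emerged plants at the 1- to 4-leaf stage.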

[3] = system: velvetleaf; assay: Test A pre-/postemergence herbicide test; format: in vivo, Abutilon theophrasti
How it was run: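 Pre: seeded sandy loam, directed soil spray, compound in non-phytotoxic solvent + surfactant. Post: 1–2-leaf plants (2–10 cm), sprayed to runoff. Greenhouse ~10 d; visual injury vs untreated, 0–100 scale.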

[4] = system: kochia; assay: Test C pre-/postemergence herbicide test; format: in vivo, Kochia scoparia; settings: for Plant response rating, Kochia: preemergence
How it was run: as §1

[5] = system: velvetleaf; assay: Test B pre-/postemergence herbicide test; format: in vivo, Abutilon theophrasti; settings: for Velvetleaf plant response rating (0 to 100 scale): 0 = no effect, 100 = complete control; for Velvetleaf plant response rating (0 to 100 scale) / Plant response rating, Velvetleaf: preemergence; for Plant response rating, Velvetleaf: visual rating 0-100, 0 no effect, 100 complete control; for Velvetleaf plant response rating: postemergence, visual rating, scale 0 (no effect) to 100 (complete control)
How it was run: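 Visual rating, 0 (no effect) to 100 (complete control), versus untreated controls after 13–15 d in greenhouse. Pre- and postemergence applications (postemergence plants 2–18 cm, 1–4 leaves); flooded paddy arm at 2-leaf stage. Compounds in non-phytotoxic solvent plus surfactant.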

[6] = system: bermudagrass; assay: Test C pre-/postemergence herbicide test; format: in vivo, Cynodon dactylon; settings: for Plant response rating, Bermudagrass: preemergence; for Bermudagrass plant response rating: Preemergence, 500 g ai/ha
How it was run: as §1

[7] = system: large crabgrass; assay: Test C pre-/postemergence herbicide test; format: in vivo, Digitaria sanguinalis; settings: for Plant response rating, Crabgrass, Large: preemergence
How it was run: as §1

[8] = system: cocklebur; assay: Test C pre-/postemergence herbicide test; format: in vivo, Xanthium strumarium; settings: for Plant response rating, Cocklebur: preemergence; for Cocklebur plant response rating: Preemergence, 500 g ai/ha, scale 0 to 100, 0 no effect, 100 complete control
How it was run: as §1

[9] = system: soybean; assay: Test C pre-/postemergence herbicide test; format: in vivo, Glycine max; settings: for Plant response rating, Soybean: preemergence
How it was run: as §1

[10] = 62 g ai/ha, scale 0 to 100 (0 no effect, 100 complete control)
[11] = 125 g ai/ha, scale 0 to 100 (0 no effect, 100 complete control)
[12] = 250 g ai/ha, scale of 0 to 100, 0 is no effect, 100 is complete control
[13] = scale 0 to 100 (0 no effect, 100 complete control)
[14] = 125 g ai/ha, scale 0 (no effect) to 100 (complete control), visual, 12 to 14 days
[15] = Preemergence, 500 g ai/ha, scale 0 to 100, 0 no effect, 100 complete control
[16] = Postemergence, 500 g ai/ha, 0 to 100 scale, 0 no effect, 100 complete control
[17] = Postemergence, 2000 g ai/ha, 0 to 100 scale, 0 no effect, 100 complete control
[18] = Preemergence, 2000 g ai/ha, visual rating, 0 to 100 scale (0 no effect, 100 complete control)
[19] = preemergence, 500 g ai/ha, visual injury, 0 to 100 scale (0 no effect, 100 complete control)
[20] = 62 g ai/ha, scale 0 to 100, 0 no effect, 100 complete control
[21] = scale 0 to 100, 0 no effect, 100 complete control
[22] = 500 g ai/ha, scale 0 to 100 (0 no effect, 100 complete control), visual, 12 to 14 days

Structure (SMILES)	Ducksalad plant response rating [1, 10]	Ducksalad plant response rating [1, 11]	Ducksalad plant response rating [1, 12]	Plant response rating, Ducksalad [1, 13]	Plant response rating, Nutsedge, Yellow ([2]; 62 g ai/ha, scale 0 to 100)	Plant response rating, Nutsedge, Yellow [2, 14]	Plant response rating, Nutsedge, Yellow ([2]; 250 g ai/ha, scale 0-100)	Velvetleaf plant response rating [3, 16]	Plant response rating, Velvetleaf [3, 17]	Velvetleaf plant response rating [3, 18]	Velvetleaf plant response rating [3, 19]	Plant response rating, Kochia ([4]; 62 g ai/ha, scale 0 to 100)	Plant response rating, Kochia [4, 14]	Plant response rating, Kochia ([4]; 250 g ai/ha, scale 0-100)	Velvetleaf plant response rating (0 to 100 scale) ([5]; 125 g ai/ha)	Plant response rating, Velvetleaf ([5]; 500 g ai/ha)	Velvetleaf plant response rating ([5]; 125 g ai/ha)	Velvetleaf plant response rating ([5]; 500 g ai/ha)	Plant response rating, Bermudagrass [6, 20]	Plant response rating, Bermudagrass [6, 14]	also measured
C=CCNC(=O)c1cccc(NC(=O)c2sc(C(C)(C)C)nc2CC)c1 [Compound 207]	55	80	80	85	0	0	20	20	25	100	30	90	90	90	20	60	20	30	50	80	Nutsedge, Yellow plant response rating [2, 15]: 20; Kochia plant response rating [4, 15]: 95; Plant response rating, Bermudagrass ([6]; 250 g ai/ha, scale 0-100): 100; Bermudagrass plant response rating [6, 21]: 100; Plant response rating, Crabgrass, Large ([7]; 62 g ai/ha, scale 0 to 100): 80; Plant response rating, Crabgrass, Large [7, 14]: 90; Plant response rating, Crabgrass, Large ([7]; 250 g ai/ha, scale 0-100): 100; Crabgrass, Large plant response rating [7, 15]: 100; Plant response rating, Cocklebur ([8]; 62 g ai/ha, scale 0 to 100): 0; Plant response rating, Cocklebur [8, 14]: 0; Plant response rating, Cocklebur ([8]; 250 g ai/ha, scale 0-100): 0; Cocklebur plant response rating [8]: 0; Plant response rating, Soybean ([9]; 62 g ai/ha, scale 0 to 100): 0; Plant response rating, Soybean [9, 14]: 0; Plant response rating, Soybean ([9]; 250 g ai/ha, scale 0-100): 0; Soybean plant response rating [9, 15]: 0
CCNC(=O)c1cccc(NC(=O)c2sc(C(C)(C)C)nc2CC)c1 [Compound 210]	40	55	85	90	0	0	5	40	65	95	70	0	90	90	10	70	30	70	80	80	Plant response rating, Nutsedge, Yellow [2, 22]: 30; Plant response rating, Kochia [4, 22]: 95; Plant response rating, Bermudagrass ([6]; 250 g ai/ha, scale 0-100): 100; Bermudagrass plant response rating [6, 21]: 100; Plant response rating, Crabgrass, Large ([7]; 62 g ai/ha, scale 0 to 100): 80; Plant response rating, Crabgrass, Large [7, 14]: 80; Plant response rating, Crabgrass, Large ([7]; 250 g ai/ha, scale 0-100): 95; Plant response rating, Crabgrass, Large [7, 22]: 100; Plant response rating, Cocklebur ([8]; 62 g ai/ha, scale 0 to 100): 0; Plant response rating, Cocklebur [8, 14]: 0; Plant response rating, Cocklebur ([8]; 250 g ai/ha, scale 0-100): 0; Cocklebur plant response rating [8]: 5; Plant response rating, Soybean ([9]; 62 g ai/ha, scale 0 to 100): 0; Plant response rating, Soybean [9, 14]: 0; Plant response rating, Soybean ([9]; 250 g ai/ha, scale 0-100): 0; Plant response rating, Soybean [9, 22]: 0
